Experimental data as given in patent US8748441B2, “Therapeutic uses of quinazolinedione derivatives” (SANOFI, priority 2009, dated 2014).

How the values were obtained:
PDE8 = PDE8 enzymatic assay equivalent to that described for PDE7; assay type: biochemical
MG7 microglial cells = test: In vitro model of microglial activation: interleukin-1β secretion by LPS-activated MG7 cells (ELISA); assay type: cell-based, mouse
Description: The compounds according to the invention have been evaluated in an in vitro model of microglial activation. After activation by lipopolysaccharide (LPS), the microglial cells secrete large amounts of interleukin-1, which amounts can be quantified by specific assaying in the cell supernatants.
Cultures of microglial cells of the MG7 line derived from the mouse cortex are incubated in the presence of variable concentrations of compounds according to the invention. After incubating at 37° C. for 1 hour, the cells are brought together with LPS, which induces the production of interleukin-1. After treating for 24 h, the amounts of interleukin-1β are measured in the culture supernatants by ELISA assay.

SMILES	IC50 (PDE8) [nM]	inhibition at 3 µM (MG7 microglial cells; Mus musculus, at 3 μM, MG7 microglial cells activated by LPS, 24 h, read-out: maximum inhibitory effect on secretion of interleukin-1β) [%]	secretion of interleukin-1β by MG7 microglial cells activated by LPS (MG7 microglial cells; variable concentrations, 1 h preincubation, LPS 24 h)
N#Cc1cc(Cn2c(=O)c3cc(OC(CF)CF)ccc3n(C3CCN(C=O)CC3)c2=O)ccc1-c1ccccc1 [No. 294, 4-({6-[2-fluoro-1-(fluoromethyl)ethoxy]-1-(1-formylpiperidin-4-yl)-2,4-dioxo-1,4-dihydroquinazolin-3(2H)-yl}methyl)biphenyl-2-carbonitrile]	15		
COc1ccc(Cn2c(=O)c3cc(OC(CF)CF)ccc3n(C3CCN(C=O)CC3)c2=O)cc1OC [No. 11, 4-[3-(3,4-dimethoxybenzyl)-6-[2-fluoro-1-(fluoromethyl)ethoxy]-2,4-dioxo-3,4-dihydroquinazolin-1(2H)-yl]piperidine-1-carbaldehyde]	140		
O=CN1CCC(n2c(=O)n(Cc3ccc(-c4cccs4)cc3)c(=O)c3cc(OC(CF)CF)c(F)cc32)CC1 [No. 297, 4-{7-fluoro-6-[2-fluoro-1-(fluoromethyl)ethoxy]-2,4-dioxo-3-(4-(thiophen-2-yl)benzyl)-3,4-dihydroquinazolin-1(2H)-yl}piperidine-1-carbaldehyde]		47	significantly decreases, in a concentration-dependent fashion
